Experimental data as given in US9995734B2, “Human T cell line assay for evaluating the immunologic identity of glatiramer acetate preparations” (Mylan Inc., priority 2013, dated 2018).
Where “and” joins values, the source holds several entries; their conditions need not be identical. Identical values can stand only once.

Experiments:
Type in all cases: cell-based, human
Donor 4 COP T-Cell Lines = experiment: ATP proliferation assay (CellTiter Glo), Donor 4 COP T-cell lines, incl. reactivity to non-canonical GA peptides; conditions: for Non-Canonical Peptide Non-Reactivity: proliferation <2 times no antigen control; for Proliferation (luminescent ATP assay), Mean: T-cell line 205-1F4, autologous B-LCL
Donor 3 GMA T-Cell Lines = experiment: ATP proliferation assay (CellTiter Glo), Donor 3 GMA T-cell lines, incl. reactivity to non-canonical GA peptides; conditions: for Non-Canonical Peptide Non-Reactivity: proliferation <2 times no antigen control; for Non-Canonical Peptide Reactivity: at least one proliferation value >=2 times no antigen control
[1] = system: Donor 1 GMA Expanded T-Cell Lines (222-AG11, 222-AG12, 222-BA11, 222-BC11); experiment: ATP proliferation assay (CellTiter Glo), Donor 1 GMA expanded T-cell lines, incl. reactivity to non-canonical GA peptides; conditions: for Proliferation (luminescent ATP assay), Mean: T-cell line 222-AG12, autologous B-LCL
How it was run: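 GMA-expanded T-cell lines from Donor 1 restimulated with GMA (0–100 μg/mL), or with non-canonical GA peptides, COP and GMA (0–30 μg/mL; T cells 2×10^5 cells/mL). Mitomycin C-treated autologous PBMC or B-LCL served as APC. Proliferation read by CellTiter-Glo ATP luminescence after 3 days at 37° C.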

## poly (Lys-Tyr; 1:1) [LT 11]
Donor 4 COP T-Cell Lines; 205-1F4 (sentence prints 165-1F4), Day 71, 0, 1, 3, 10 μg/mL
  reactivity to non-canonical GA peptides: showed reactivity
Donor 4 COP T-Cell Lines; 205-1F4 (sentence prints 165-1F4), Day 80, 1, 2, 5, 10 μg/mL
  reactivity to non-canonical GA peptide: showed reactivity
Donor 4 COP T-Cell Lines; 205-1F4, Day 71, dose of 10 μg/mL antigen (text: Table 60)
  response relative to the no antigen control: 76.5 fold
Donor 4 COP T-Cell Lines; 205-1F4, Day 80, dose of 10 μg/mL antigen (Table 58)
  response relative to the no antigen control: 17.3 fold
Donor 4 COP T-Cell Lines; 205-1F4, at least one proliferation value >=2 times no antigen control
  Non-Canonical Peptide Reactivity: LT 11
Donor 4 COP T-Cell Lines; 205-1F4, text Day 80, dose of 10 μg/mL antigen (text: Table 59)
  response relative to the no antigen control: 10.4 fold
Donor 4 COP T-Cell Lines; 205-1H3
  Non-Canonical Peptide Non-Reactivity: LT 11
Donor 4 COP T-Cell Lines; 205-1H11
  Non-Canonical Peptide Non-Reactivity: LT 11
Donor 4 COP T-Cell Lines; Donor 4 COP lines, at least a 50% increase in proliferation relative to a control after stimulation with the non-canonical GA peptide
  Reactive T-Cell Line: 205-1F4 (Donor 4)
Donor 4 COP T-Cell Lines; Donor 4 COP lines, stimulation with the non-canonical GA peptide
  Nonreactive T-Cell Line: 205-1H3 (Donor 4)
Donor 4 COP T-Cell Lines; Day 71, 1 μg/mL antigen
  Proliferation (luminescent ATP assay), Mean: 73850
Donor 4 COP T-Cell Lines; Day 71, 3 μg/mL antigen
  Proliferation (luminescent ATP assay), Mean: 154321
Donor 4 COP T-Cell Lines; Day 71, 10 μg/mL antigen
  Proliferation (luminescent ATP assay), Mean: 158776
Donor 4 COP T-Cell Lines; Day 80, 1 μg/mL antigen
  Proliferation (luminescent ATP assay), Mean: 3,675
Donor 4 COP T-Cell Lines; Day 80, 2 μg/mL antigen
  Proliferation (luminescent ATP assay), Mean: 4,589
Donor 4 COP T-Cell Lines; Day 80, 5 μg/mL antigen
  Proliferation (luminescent ATP assay), Mean: 7,626
Donor 4 COP T-Cell Lines; Day 80, 10 μg/mL antigen
  Proliferation (luminescent ATP assay), Mean: 8,853
Donor 4 COP T-Cell Lines; T-cell line 205-1H3, 1 μg/mL antigen, 0 μg/mL 4121.0
  Reactivity (proliferation), Mean: 4780.3
Donor 4 COP T-Cell Lines; T-cell line 205-1H3, 3 μg/mL antigen, 0 μg/mL 4121.0
  Reactivity (proliferation), Mean: 3083.3
Donor 4 COP T-Cell Lines; T-cell line 205-1H3, 10 μg/mL antigen, 0 μg/mL 4121.0
  Reactivity (proliferation), Mean: 3381.0
Donor 4 COP T-Cell Lines; T-cell line 205-1H11, 1 μg/mL antigen, 0 μg/mL 6941
  Reactivity (proliferation), Mean: 5961 RLU
Donor 4 COP T-Cell Lines; T-cell line 205-1H11, 10 μg/mL antigen, 0 μg/mL 6941
  Reactivity (proliferation), Mean: 6698 RLU
Donor 4 COP T-Cell Lines; T-cell line 205-1H11, 30 μg/mL antigen, 0 μg/mL 6941
  Reactivity (proliferation), Mean: 4303 RLU
Donor 3 GMA T-Cell Lines; 165-05G (so in the source), minimum 55 days in culture, 0, 1, 3, 10 μg/mL
  proliferation response to non-canonical GA peptides: responded
Donor 3 GMA T-Cell Lines; 165-B5G
  Non-Canonical Peptide Non-Reactivity: LT 11
Donor 3 GMA T-Cell Lines; 165-C5G
  Non-Canonical Peptide Reactivity: LT 11
Donor 3 GMA T-Cell Lines; 165-E7G
  Non-Canonical Peptide Non-Reactivity: LT 11
Donor 3 GMA T-Cell Lines; 165-E9G
  Non-Canonical Peptide Non-Reactivity: LT 11
Donor 3 GMA T-Cell Lines; 165-F5G
  Non-Canonical Peptide Non-Reactivity: LT 11
Donor 3 GMA T-Cell Lines; 165-F10G
  Non-Canonical Peptide Reactivity: LT 11
Donor 3 GMA T-Cell Lines; 165-H11G
  Non-Canonical Peptide Non-Reactivity: LT 11
Donor 3 GMA T-Cell Lines; Donor 3 GMA lines, at least a 50% increase in proliferation relative to a control after stimulation with the non-canonical GA peptide
  Reactive T-Cell Line: 165-C5G (Donor 3) and 165-F10G (Donor 3)
Donor 3 GMA T-Cell Lines; Donor 3 GMA lines, stimulation with the non-canonical GA peptide
  Nonreactive T-Cell Line: 165-B5G (Donor 3) and 165-F5G (Donor 3) and 165-E7G (Donor 3) and 165-E9G (Donor 3) and 165-H11G (Donor 3)
Donor 3 GMA T-Cell Lines; T-cell line 165-B5G, 1.25 μg/mL antigen, Day 55 of culturing, No Antigen Value 846
  Proliferation (luminescent ATP assay), Mean: 1497 RLU
Donor 3 GMA T-Cell Lines; T-cell line 165-B5G, 2.5 μg/mL antigen, Day 55 of culturing, No Antigen Value 846
  Proliferation (luminescent ATP assay), Mean: 1724 RLU
Donor 3 GMA T-Cell Lines; T-cell line 165-B5G, 5 μg/mL antigen, Day 55 of culturing, No Antigen Value 846
  Proliferation (luminescent ATP assay), Mean: 1666 RLU
Donor 3 GMA T-Cell Lines; T-cell line 165-B5G, 10 μg/mL antigen, Day 55 of culturing, No Antigen Value 846
  Proliferation (luminescent ATP assay), Mean: 2705 RLU
Donor 3 GMA T-Cell Lines; T-cell line 165-C5G, 1.25 μg/mL antigen, autologous B-LCL
  Proliferation (luminescent ATP assay), Mean: 527 RLU
Donor 3 GMA T-Cell Lines; T-cell line 165-C5G, 2.5 μg/mL antigen, autologous B-LCL
  Proliferation (luminescent ATP assay), Mean: 680 RLU
Donor 3 GMA T-Cell Lines; T-cell line 165-C5G, 5 μg/mL antigen, autologous B-LCL
  Proliferation (luminescent ATP assay), Mean: 3010 RLU
Donor 3 GMA T-Cell Lines; T-cell line 165-C5G, 10 μg/mL antigen, autologous B-LCL
  Proliferation (luminescent ATP assay), Mean: 34438 RLU
Donor 3 GMA T-Cell Lines; T-cell line 165-E7G, 1.25 μg/mL antigen, autologous B-LCL, Day 55
  Proliferation (luminescent ATP assay), Mean: 2785 RLU
Donor 3 GMA T-Cell Lines; T-cell line 165-E7G, 2.5 μg/mL antigen, autologous B-LCL, Day 55
  Proliferation (luminescent ATP assay), Mean: 5270 RLU
Donor 3 GMA T-Cell Lines; T-cell line 165-E7G, 5 μg/mL antigen, autologous B-LCL, Day 55
  Proliferation (luminescent ATP assay), Mean: 3559 RLU
Donor 3 GMA T-Cell Lines; T-cell line 165-E7G, 10 μg/mL antigen, autologous B-LCL, Day 55
  Proliferation (luminescent ATP assay), Mean: 1983 RLU
Donor 3 GMA T-Cell Lines; T-cell line 165-E9G, 1.25 μg/mL antigen, autologous B-LCL
  Proliferation (luminescent ATP assay), Mean: 132 RLU
Donor 3 GMA T-Cell Lines; T-cell line 165-E9G, 2.5 μg/mL antigen, autologous B-LCL
  Proliferation (luminescent ATP assay), Mean: 129 RLU
Donor 3 GMA T-Cell Lines; T-cell line 165-E9G, 5 μg/mL antigen, autologous B-LCL
  Proliferation (luminescent ATP assay), Mean: 89 RLU
Donor 3 GMA T-Cell Lines; T-cell line 165-E9G, 10 μg/mL antigen, autologous B-LCL
  Proliferation (luminescent ATP assay), Mean: 91 RLU
Donor 3 GMA T-Cell Lines; T-cell line 165-F5G, 1.25 μg/mL antigen, autologous B-LCL
  Proliferation (luminescent ATP assay), Mean: 126 RLU
Donor 3 GMA T-Cell Lines; T-cell line 165-F5G, 2.5 μg/mL antigen, autologous B-LCL
  Proliferation (luminescent ATP assay), Mean: 113 RLU
Donor 3 GMA T-Cell Lines; T-cell line 165-F5G, 5 μg/mL antigen, autologous B-LCL
  Proliferation (luminescent ATP assay), Mean: 136 RLU
Donor 3 GMA T-Cell Lines; T-cell line 165-F5G, 10 μg/mL antigen, autologous B-LCL
  Proliferation (luminescent ATP assay), Mean: 129 RLU
Donor 3 GMA T-Cell Lines; T-cell line 165-F10G, 1.25 μg/mL antigen, autologous B-LCL
  Proliferation (luminescent ATP assay), Mean: 1145 RLU
Donor 3 GMA T-Cell Lines; T-cell line 165-F10G, 2.5 μg/mL antigen, autologous B-LCL
  Proliferation (luminescent ATP assay), Mean: 1270 RLU
Donor 3 GMA T-Cell Lines; T-cell line 165-F10G, 5 μg/mL antigen, autologous B-LCL
  Proliferation (luminescent ATP assay), Mean: 1552 RLU
Donor 3 GMA T-Cell Lines; T-cell line 165-F10G, 10 μg/mL antigen, autologous B-LCL
  Proliferation (luminescent ATP assay), Mean: 8012 RLU
Donor 3 GMA T-Cell Lines; T-cell line 165-H11G, 1.25 μg/mL antigen, autologous B-LCL
  Proliferation (luminescent ATP assay), Mean: 15 RLU
Donor 3 GMA T-Cell Lines; T-cell line 165-H11G, 2.5 μg/mL antigen, autologous B-LCL
  Proliferation (luminescent ATP assay), Mean: 326 RLU
Donor 3 GMA T-Cell Lines; T-cell line 165-H11G, 5 μg/mL antigen, autologous B-LCL
  Proliferation (luminescent ATP assay), Mean: 357 RLU
Donor 3 GMA T-Cell Lines; T-cell line 165-H11G, 10 μg/mL antigen, autologous B-LCL
  Proliferation (luminescent ATP assay), Mean: 178 RLU
[1]; 222-AG12, proliferation <2 times no antigen control
  Non-Canonical Peptide Non-Reactivity: LT 11
[1]; Donor 1 GMA expanded lines, stimulation with the non-canonical GA peptide
  Nonreactive T-Cell Line: 222-AG12 (Donor 1)
[1]; 1 ug/mL antigen
  Proliferation (luminescent ATP assay), Mean: 3452 RLU
[1]; 10 ug/mL antigen
  Proliferation (luminescent ATP assay), Mean: 4242 RLU
[1]; 30 ug/mL antigen
  Proliferation (luminescent ATP assay), Mean: 2347 RLU
